Measured values reported in ChEMBL document CHEMBL1131365, “Identification and SAR for a selective, nonpeptidyl thrombin inhibitor” (Bioorg Med Chem Lett, 1998).

Assays:
Prothrombin = Prothrombin (Homo sapiens, UniProt P00734); experiment: Compound was evaluated for its inhibitory activity against human thrombin
Serine protease 1 = Serine protease 1 (Homo sapiens, UniProt P07477); experiment: Compound was evaluated for its inhibitory activity against trypsin
Chain of Serine protease 1 (P07477 whole entry): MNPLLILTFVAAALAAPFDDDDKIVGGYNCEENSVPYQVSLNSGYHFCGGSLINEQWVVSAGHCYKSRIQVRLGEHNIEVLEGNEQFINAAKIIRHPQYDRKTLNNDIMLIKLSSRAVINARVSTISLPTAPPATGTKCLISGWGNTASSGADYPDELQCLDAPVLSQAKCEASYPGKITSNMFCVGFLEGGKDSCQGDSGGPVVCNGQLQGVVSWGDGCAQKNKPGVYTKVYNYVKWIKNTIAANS

Compound	Ki (Prothrombin)	Ki (Serine protease 1)
Nc1ccc(Cc2ccc(OCc3ccccc3)cc2)cc1	> 10 µM	> 10 µM
NC1CCN(Cc2ccc(OCc3ccccc3)cc2)CC1	581 µM	
c1ccc(C(Oc2ccc(CNc3ccncc3)cc2)c2ccccc2)cc1	1.3 µM	77 µM
c1ccc(COc2ccc(CNc3ccncc3)cc2)cc1	4.7 µM	233 µM
c1ccc(COc2ccc(CCNc3ccncc3)cc2)cc1	7.9 µM	568 µM

Now from value to molecule:

Ki (Prothrombin)	Ki (Serine protease 1)	Compound
> 500 µM		c1ccc(COc2ccc(C[n+]3ccccc3)cc2)cc1
0.16 µM	16 µM	Nc1cc[n+](Cc2ccc(OC(CCc3ccccc3)c3ccccc3)cc2)cc1 (stereo unspecified)
0.7 µM	77 µM	Nc1cc[n+](Cc2ccc(OCc3ccccc3)cc2)cc1
0.058 µM	517 µM	Nc1cc[n+](Cc2ccc(OC(c3ccccc3)c3ccccc3)cc2)cc1
